Entries after “also recorded” stand apart in the source; their conditions may differ.
How the values were obtained:
mitochondrial biogenesis = details: cited from earlier work
[1] = test system: carnitinepalmitoyltransferase (CPT)-1; assay: CPT-1 activity in heart mitochondria of old animals treated with oral propionyl-L-carnitine (FIG. 8); type: in vivo, rodent; details: old hearts, oral treatment, p<0.02, n=6
Text: FIG. 8 depicts graphs showing carnitinepalmitoyltransferase (CPT)-1activity decreases with age in mitochondria (2 vs 18 mos, p<0.004).
Appropriate regulation of energy substrate metabolism not only involves relatively normal insulin sensitivity, but also adequate number and functional capacity of mitochondria. One aspect of mitochondrial function is the rate of production of mitochondrial proteins. […] In addition to adequate protein content in mitochondria, it is necessary that substrates, particularly long-chain fatty acids, are not limited in their ability to enter the mitochondria, or in their complete oxidation once inside the mitochondria. The capacity to oxidize fatty acids is reduced in patients with major inflammatory responses due to reduced carnitine palmitoyltransferase 1 (CPT1) activity. Unimpaired capacity to oxidize fatty acids is important because the energy to perform low-intensity exercise, including activities of daily living that individuals with heart failure often struggle with, is provided by the oxidation of fatty acids.

muscle protein synthesis = details: cited from earlier work
[2] = test system: patients with heart failure; details: dietary supplementation; cited from earlier work
[3] = test system: nitric oxide (NO) synthesis; assay: Isotopic tracer study of plasma arginine and NO synthesis during citrulline ingestion (FIG. 5); type: in vivo, human
Method: FIG. 5 depicts plasma arginine responses (A) and nitric oxide (NO) synthesis rates (B) in basal period and during ingestion of 3 g of citrulline (CIT) sip ingestion over 3 hours in elderly (n=8, 77±9y, 93±4 kg) and young individuals (n=8, 27±9y, 70±5 kg).
Briefly, elderly (n=8, 77±9y, 93±4 kg) and young individuals (n=8, 27±9y, 70±5 kg) ingested 3 grams of citrulline over 3 hours and plasma arginine response and nitric oxide (NO) synthesis rates were quantified. […] Thus, oral ingestion of citrulline is very effective in increasing peripheral arginine concentration and NO synthesis in elderly subjects with heart failure.

[4] = 3 g citrulline sip ingestion over 3 hours, elderly and young

## CC(C)C[C@H](N)C(=O)O [leucine]
Mitochondrial biogenesis
  mitochondrial biogenesis: stimulate mitochondrial biogenesis

## CCC(=O)O[C@H](CC(=O)[O-])C[N+](C)(C)C [propionyl-L-carnitine]
[1]
  CPT-1 activity in mitochondria: can restore CPT-1 activity to that of young hearts; also recorded: restored CPT to that of young hearts

## N=C(N)NCCC[C@H](N)C(=O)O [arginine]
Muscle protein synthesis
  effect on muscle protein synthesis when NO synthesis pharmacologically blocked: effective even when given when NO synthesis was pharmacologically blocked
[2]
  blood pressure: reduces blood pressure
  duration until exhaustion on a treadmill walk: increased duration until exhaustion
  right ventricular function: improves right ventricular function

## NC(=O)NCCC[C@H](N)C(=O)O [citrulline]
[3]; [4]
  nitric oxide (NO) synthesis rate: stimulated production of NO
  plasma arginine response: effectively increased the concentration of arginine in the blood
[3]; elderly with heart failure, 3 g citrulline over 3 hours
  increase in NO synthesis in elderly: physiologically significant
